These compounds were tested against T1, cloned human M2 receptor (Homo sapiens, UniProt P08172) (assay: hM2 receptor GTPγS binding). Conditions: CHO membranes expressing hM2, [35S]GTPγS binding.
T1 construct: purchased Perkin-Elmer RBHM2M; host or cells: Chinese hamster ovary cells (CHO), membranes
T1 sequence (P08172 1-466): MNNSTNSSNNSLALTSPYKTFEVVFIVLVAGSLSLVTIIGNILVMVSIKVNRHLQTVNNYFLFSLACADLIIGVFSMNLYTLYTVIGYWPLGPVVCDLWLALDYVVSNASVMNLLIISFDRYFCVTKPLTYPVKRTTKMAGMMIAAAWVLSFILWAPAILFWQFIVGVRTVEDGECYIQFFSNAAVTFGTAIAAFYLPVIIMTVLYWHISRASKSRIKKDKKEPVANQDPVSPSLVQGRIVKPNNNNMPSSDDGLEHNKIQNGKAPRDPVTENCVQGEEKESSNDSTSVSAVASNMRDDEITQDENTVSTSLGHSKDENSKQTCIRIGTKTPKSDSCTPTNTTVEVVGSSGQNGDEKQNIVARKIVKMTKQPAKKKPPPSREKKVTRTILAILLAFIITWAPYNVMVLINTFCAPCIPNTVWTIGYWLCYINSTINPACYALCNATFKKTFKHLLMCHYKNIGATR
Assay type: biochemical
Description: hM2 Receptor GTPγS Binding Membranes produced from Chinese hamster ovary cells (CHO) expressing the cloned human M2 receptor (human Muscarinic receptor subtype 2, gene bank access NM_000739), are obtained from Perkin-Elmer (RBHM2M). The membranes are thawed at 37° C., passed 3 times through a 23-gauge blunt-end needle, diluted in the GTPγS binding buffer (50 mM Hepes, 20 mM NaOH, 100 mM NaCl, 1 mM EDTA, 5 mM MgCl2, pH 7.4, 100 μM DTT). The EC50, IC50 and Emax of the compounds of the invention are evaluated from 10-point dose-response curves (three fold concentration range) done in 60 μl in 384-well non-specific binding surface plate (Corning). Ten microliters from the dose-response curves plate (5× concentration) are transferred to another 384 well plate containing 25 μl of the following: 5 μg of hM2 membranes, 500 μg of Flashblue beads (Perkin-Elmer) and GDP 25 μM. An additional 15 μl containing 3.3× (60,000 dpm) of GTPγ^35S (0.4 nM final) are added to the wells resulting in a total well volume of 50 μl. Basal and maximal stimulated [^35S]GTPγS binding are determined in absence and presence of 30 μM final of acetylcholine agonist. The membranes/beads mix are pre-incubated for 15 minutes at room temperature with 25 μM GDP prior to distribution in plates (12.5 μM final). The reversal of acetylcholine-induced stimulation (2 μM final) of [^35S]GTPγS binding is used to assay the antagonist properties (IC50) of the compounds. The plates are incubated for 60 minutes at room temperature then centrifuged at 400 rpm for 5 minutes. The radioactivity (cpm) is counted in a Trilux (Perkin-Elmer). Values of EC50, IC50 and Emax are obtained using sigmoidal fits of a non-linear curve-fitting program (XLfit version 4.2.2 Excel add-in version 4.2.2 build 18 math 1Q version 2.1.2 build 18) of percent stimulated [^35S]GTPγS binding vs. log(molar ligand). All pEC50 and pIC50 values are reported as arithmetic means±standard error of mean of ‘n’ independent experiments.

Q: How did the EC50 turn out when `O=C1NC[C@H]2CCCC[C@@H]2N1C1CCN(C2CCC(COCC(F)F)CC2)CC1` (single isomer, unassigned) [Example 50] was run?
A: Its EC50 is 340 nM.

Q: `O=C1CO[C@H]2CCCC[C@@H]2N1C1CCN(C2CC(COCC3CC3)C2)CC1` (single isomer, unassigned) [Example 41] was tested. Which EC50 did it give?
A: Its EC50 is > 15000 nM.

These compounds were tested against T2, hM1 (human Muscarinic receptor subtype 1) (Homo sapiens, UniProt P11229) (assay: Human M1 calcium mobilization FLIPR assay). Conditions: hM1 expressed in CHO cells, intracellular Ca2+ release (FLIPR).
T2 construct: expressed in transfected cells; host or cells: CHO cells (ATCC)
T2 sequence (P11229 1-460): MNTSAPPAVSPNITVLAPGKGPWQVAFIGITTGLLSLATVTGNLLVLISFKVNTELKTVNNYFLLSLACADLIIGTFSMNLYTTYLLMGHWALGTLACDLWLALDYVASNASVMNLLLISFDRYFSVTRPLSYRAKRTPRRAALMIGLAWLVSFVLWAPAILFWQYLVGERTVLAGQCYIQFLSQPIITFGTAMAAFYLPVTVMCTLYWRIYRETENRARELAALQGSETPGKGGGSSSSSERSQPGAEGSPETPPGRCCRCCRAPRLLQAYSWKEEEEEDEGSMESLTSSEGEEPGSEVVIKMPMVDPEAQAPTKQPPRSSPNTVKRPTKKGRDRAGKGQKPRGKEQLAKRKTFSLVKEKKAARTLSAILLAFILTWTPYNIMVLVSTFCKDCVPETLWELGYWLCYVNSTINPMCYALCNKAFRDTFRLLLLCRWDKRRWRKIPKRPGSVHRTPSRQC
Assay type: cell-based
Description: (§1) Human M1, rat M1, Human M3 and Human M5 Calcium Mobilization FLIPR™ Assay The compound activity in the present invention (EC50 or IC50) is measured using a 384 plate-based imaging assay that monitors drug induced intracellular Ca^2+ release in whole cells. Activation of hM1 (human Muscarinic receptor subtype 1, gene bank access NM_000738), rM1 (rat Muscarinic receptor subtype 1, gene bank access NM_080773), hM3 (human Muscarinic receptor subtype 3, gene bank access NM_000740NM_000740) and hM5 (human Muscarinic receptor subtype 5, gene bank access NM_0121258), receptors expressed in CHO cells (Chinese hamster ovary cells, ATCC) is quantified in a Molecular Devices FLIPR IITM instrument as an increase in fluorescent signal. Inhibition of hM3 and hM5 by compounds is determined by the decrease in fluorescent signal in response to 2 nM acetylcholine activation. […] Prior to experiment, the cell culture medium is removed from the plates by inversion. […] Plates are incubated at 37° C. for 60 minutes prior to start the experiment. The incubation is terminated by washing the cells four times in assay buffer, leaving a residual 25 μl buffer per well. Cell plates are then transferred to the FLIPR, ready for compound additions. The day of experiment, acetylcholine and compounds are diluted in assay buffer in three-fold concentration range (10 points serial dilution) for addition by FLIPR instrument. For all calcium assays, a baseline reading is taken for 10 seconds followed by the addition of 12.5 μl of compounds, resulting in a total well volume of 37.5 μl. Data is collected every second for 60 pictures and then every 6 seconds for 20 pictures prior to the addition of agonist. For hM3 and hM5, before agonist addition, a second baseline reading is taken for 10 seconds followed by the addition of 12.5 μl of agonist or buffer, producing a final volume of 50 μl. After agonist stimulation, the FLIPR continues to collect data every second for 60 pictures and then every 6 seconds for 20 pictures. The fluorescence emission is read using filter 1 (emission 510-570 nm) by the FLIPR on board CCD camera. Calcium mobilization output data are calculated as the maximal relative fluorescence unit (RFU) minus the minimal value for both compound and agonist reading frame (except for hM1 and rM1 using only the maximal RFU). Data are analyzed using sigmoidal fits of a non-linear curve-fitting program (XLfit version 4.2.2 Excel add-in version 4.2.2 build 18 math 1Q version 2.1.2 build 18). All pEC50 and pIC50 values are reported as arithmetic means±standard error of mean of ‘n’ independent experiments.

Q: With `O=C1CO[C@H]2CCCC[C@@H]2N1C1CCN(C2CCC(OCC3CC3)CC2)CC1` (single isomer, unassigned) [Example 20] as the compound, how does the EC50 read?
A: Its EC50 is 170 nM.

Q: With `CCOCC1(C)CCC(N2CCC(N3C(=O)CO[C@H]4CCCC[C@@H]43)CC2)CC1` (single isomer, unassigned) [Example 31] as the compound, how does the EC50 read?
A: Its EC50 is 190 nM.

Q: With `CCOC[C@H]1CC[C@@H](N2CCC(N3C(=O)CO[C@@H]4CCCC[C@H]43)CC2)C1` [Example 46, (4aR,8aR)-4-(1-((1R,3S)-3-(ethoxymethyl)cyclopentyl)piperidin-4-yl)hexahydro-2H-benzo[b][1,4]oxazin-3(4H)-one] as the compound, how does the EC50 read?
A: The EC50 was 290 nM.

Q: `O=C1NC[C@H]2CCCC[C@@H]2N1C1CCN(C2CCCCC2)CC1` [Example 12, (4aR,8aS)-1-(1-cyclohexylpiperidin-4-yl)octahydroquinazolin-2(1H)-one] was tested. Which EC50 did it give?
A: The EC50 was 60 nM.

Q: How did the EC50 turn out when `O=C1NC[C@H]2CCCC[C@@H]2N1C1CCN(C2CCC(COCC(F)F)CC2)CC1` (single isomer, unassigned) [Example 50] was run?
A: The EC50 was 0.76 nM.

Q: How did the EC50 turn out when `CCC1CCC(N2CCC(N3C(=O)NC[C@H]4CCCC[C@@H]43)CC2)CC1` (mixture of isomers) [Example 11, (4aR,8aS)-1-(1-(4-ethylcyclohexyl)piperidin-4-yl)octahydroquinazolin-2(1H)-one] was run?
A: The EC50 was 43 nM.

Q: Which EC50 does the source give for `CC(C)OCC1CCC(N2CCC(N3C(=O)CO[C@@H]4CCC(F)(F)C[C@H]43)CC2)CC1` (single isomer, unassigned) [Example 35] here?
A: Its EC50 is 180 nM.

Q: `CCCOC1CCC(N2CCC(N3C(=O)NC[C@H]4CCCC[C@@H]43)CC2)CC1` (single isomer, unassigned) [Example 05] was tested. Which EC50 did it give?
A: The EC50 was 160 nM.

Q: How did the EC50 turn out when `CCOC[C@H]1CC[C@@H](N2CCC(N3C(=O)COC4CCCCC43)CC2)CC1` (single isomer, unassigned) [Example 33] was run?
A: The EC50 was 110 nM.

Q: For `CC(C)OC1CCC(N2CCC(N3C(=O)NC[C@H]4CCCC[C@@H]43)CC2)CC1` (single isomer, unassigned) [Example 07], which EC50 is on record?
A: The EC50 was 660 nM.

Q: `O=C1NC[C@H]2CCCC[C@@H]2N1C1CCN(C2CCCC2)CC1` [Example 10, (4aR,8aS)-1-(1-cyclopentylpiperidin-4-yl)octahydroquinazolin-2(1H)-one] was tested. Which EC50 did it give?
A: The EC50 was 68 nM.

Q: `CCOC[C@H]1CC[C@@H](N2CCC(N3C(=O)COC4CCCCC43)CC2)CC1` (single isomer, unassigned) [Example 34] was tested. Which EC50 did it give?
A: Its EC50 is 80 nM.

Q: How did the EC50 turn out when `CC(C)OCC1CCC(N2CCC(N3C(=O)CO[C@@H]4CCC(F)(F)C[C@H]43)CC2)CC1` (single isomer, unassigned) [Example 36] was run?
A: The EC50 was 310 nM.

Q: For `CCOCC1(C)CCC(N2CCC(N3C(=O)CO[C@H]4CCCC[C@@H]43)CC2)CC1` (single isomer, unassigned) [Example 30], which EC50 is on record?
A: The EC50 was 200 nM.

Q: Which EC50 does the source give for `O=C1CO[C@H]2CCCC[C@@H]2N1C1CCN(C2CC(COCC3CC3)C2)CC1` (single isomer, unassigned) [Example 41] here?
A: The EC50 was 52 nM.

Q: With `O=C1COC2CCCC2N1C1CCN([C@H]2CC[C@@H](COCC3CC3)CC2)CC1` (single isomer, unassigned) [Example 49] as the compound, how does the EC50 read?
A: The EC50 was 110 nM.

Q: How did the EC50 turn out when `O=C1CO[C@@H]2CCCC[C@H]2N1C1CCN([C@H]2CC[C@@H](COCC3CC3)CC2)CC1` [Example 32, (4aR,8aR)-4-(1-((1s,4S)-4-((cyclopropylmethoxy)methyl)cyclohexyl)piperidin-4-yl)hexahydro-2H-benzo[b][1,4]oxazin-3(4H)-one] was run?
A: Its EC50 is 190 nM.

Q: `C#CCOC1CCC(N2CCC(N3C(=O)NC[C@H]4CCCC[C@@H]43)CC2)CC1` (mixture of isomers) [Example 09, (4aR,8aS)-1-(1-(4-(prop-2-ynyloxy)cyclohexyl)piperidin-4-yl)octahydroquinazolin-2(1 H)-one] was tested. Which EC50 did it give?
A: Its EC50 is 31 nM.

Q: `O=C1CO[C@H]2CCCC[C@@H]2N1C1CCN(C2CCC(OCC3CC3)CC2)CC1` (single isomer, unassigned) [Example 21] was tested. Which EC50 did it give?
A: The EC50 was 110 nM.

Q: For `CCCOC1CCC(N2CCC(N3C(=O)CO[C@H]4CCCC[C@@H]43)CC2)CC1` (single isomer, unassigned) [Example 16], which EC50 is on record?
A: Its EC50 is 190 nM.

Q: For `O=C1CO[C@@H]2CCC[C@@H]2N1C1CCN([C@H]2CC[C@@H](COCC3CC3)CC2)CC1` [Example 47, (4aS,7aR)-4-(1-((1s,4R)-4-((cyclopropylmethoxy)methyl)cyclohexyl)piperidin-4-yl)hexahydrocyclopenta[b][1,4]oxazin-3(2H)-one], which EC50 is on record?
A: Its EC50 is 93 nM.

These compounds were tested against T3, hM3 (human Muscarinic receptor subtype 3) (Homo sapiens, UniProt P20309) (assay: Human M3 calcium mobilization FLIPR assay). Conditions: hM3 expressed in CHO cells, intracellular Ca2+ release (FLIPR).
T3 construct: expressed in transfected cells; host or cells: CHO cells (ATCC)
T3 sequence (P20309 whole entry): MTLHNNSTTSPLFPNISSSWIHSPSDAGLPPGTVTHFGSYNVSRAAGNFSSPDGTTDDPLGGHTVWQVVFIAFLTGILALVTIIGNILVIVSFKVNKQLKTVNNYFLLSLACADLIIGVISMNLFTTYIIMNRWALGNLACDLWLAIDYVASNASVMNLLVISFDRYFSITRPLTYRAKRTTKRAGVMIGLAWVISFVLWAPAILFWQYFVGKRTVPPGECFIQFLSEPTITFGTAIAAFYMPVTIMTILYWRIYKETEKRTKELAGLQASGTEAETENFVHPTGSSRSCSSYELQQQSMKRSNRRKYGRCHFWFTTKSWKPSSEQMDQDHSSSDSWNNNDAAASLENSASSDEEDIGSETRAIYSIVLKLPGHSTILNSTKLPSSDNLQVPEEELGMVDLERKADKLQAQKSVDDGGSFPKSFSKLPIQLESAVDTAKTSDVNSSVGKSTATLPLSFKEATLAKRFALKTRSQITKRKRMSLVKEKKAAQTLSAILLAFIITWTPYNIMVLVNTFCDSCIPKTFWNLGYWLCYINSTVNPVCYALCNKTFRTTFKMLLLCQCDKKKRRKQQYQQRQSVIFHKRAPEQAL
Assay type: cell-based
Description: as §1

Q: How did the EC50 turn out when `O=C1NC[C@H]2CCCC[C@@H]2N1C1CCN(C2CCCCC2)CC1` [Example 12, (4aR,8aS)-1-(1-cyclohexylpiperidin-4-yl)octahydroquinazolin-2(1H)-one] was run?
A: The EC50 was > 40000 nM.

Q: How did the EC50 turn out when `CCC1CCC(N2CCC(N3C(=O)NC[C@H]4CCCC[C@@H]43)CC2)CC1` (mixture of isomers) [Example 11, (4aR,8aS)-1-(1-(4-ethylcyclohexyl)piperidin-4-yl)octahydroquinazolin-2(1H)-one] was run?
A: The EC50 was > 40000 nM.

Reference: patent US20090275574A1, “NOVEL COMPOUNDS-300” (ASTRAZENECA AB, priority 2008, published 2009)
